Source: US20090176847A1, “Dicyclooctane Derivatives, Preparation Processes and Medical Uses Thereof” (priority 2006, published 2009)
Structures can show the parent of a compound that is named as a salt.

Columns and labels:
[1] = target: T1, Dipeptidylpeptidase IV, Human Placenta (Homo sapiens, UniProt P27487); assay: Active inhibition DPP IV assay (DPP IV-Glo Protease Assay Kit, chemical luminescent); format: biochemical; details: chemiluminescence, two parallel treatments
T1 construct: Dipeptidylpeptidase IV, Human Placenta (cat. 317630) of Calbiochem company; purchased Calbiochem 317630; host or cells: human placenta (tissue-derived natural enzyme)
Experimental: IC50 is determined by a NovoStar ELIASA (BMG Co. German).
According to the manual of the kit, this invention inspected the amount of the each reagent in the experimental, corresponding amount of DPPIV enzyme and chemiluminescence detection methods.

[2] = system: normal ICR mice; assay: Preliminary evaluation of hypoglycemic activity: effects on glucose tolerance in normal ICR mice; format: in vivo; details: oral 0.3, 1, 3, 10 mg/kg, serum glucose
Experimental: Effects on glucose tolerance in normal ICR mice of examples 15 and 16 were determined. Hypoglycemic activities in vivo were preliminary evaluated. Preparation procedure: drugs were accurately weighed and dissolved in double-distilled water, misce bene to obtain 0.5 mg/ml suspension, then diluted into colorless and clear solutions which concentration were 0.15, 0.05 and 0.015 mg/ml. Administrated Dose: the oral doses were 0.3, 1, 3, 10 mg/kg and the volume was 20 ml/kg. […] Glucose kits was used in the determination of serum glucose levels. Take 250 μl enzyme fluid, then add 5 μl serum. Establish blank tube (by added 5 μl double-distilled) and the standard tube (by added 5 μl standard glucose solution) simultaneously, misce bene. 37° C. water bath for 20 min. To adjust to zero value with blank tube, OD(505 nm) levels were determined. Serum glucose level BG(mmol/l)=ODsample tube/ODstandard tube×5.55.

T1 sequence (P27487 whole entry): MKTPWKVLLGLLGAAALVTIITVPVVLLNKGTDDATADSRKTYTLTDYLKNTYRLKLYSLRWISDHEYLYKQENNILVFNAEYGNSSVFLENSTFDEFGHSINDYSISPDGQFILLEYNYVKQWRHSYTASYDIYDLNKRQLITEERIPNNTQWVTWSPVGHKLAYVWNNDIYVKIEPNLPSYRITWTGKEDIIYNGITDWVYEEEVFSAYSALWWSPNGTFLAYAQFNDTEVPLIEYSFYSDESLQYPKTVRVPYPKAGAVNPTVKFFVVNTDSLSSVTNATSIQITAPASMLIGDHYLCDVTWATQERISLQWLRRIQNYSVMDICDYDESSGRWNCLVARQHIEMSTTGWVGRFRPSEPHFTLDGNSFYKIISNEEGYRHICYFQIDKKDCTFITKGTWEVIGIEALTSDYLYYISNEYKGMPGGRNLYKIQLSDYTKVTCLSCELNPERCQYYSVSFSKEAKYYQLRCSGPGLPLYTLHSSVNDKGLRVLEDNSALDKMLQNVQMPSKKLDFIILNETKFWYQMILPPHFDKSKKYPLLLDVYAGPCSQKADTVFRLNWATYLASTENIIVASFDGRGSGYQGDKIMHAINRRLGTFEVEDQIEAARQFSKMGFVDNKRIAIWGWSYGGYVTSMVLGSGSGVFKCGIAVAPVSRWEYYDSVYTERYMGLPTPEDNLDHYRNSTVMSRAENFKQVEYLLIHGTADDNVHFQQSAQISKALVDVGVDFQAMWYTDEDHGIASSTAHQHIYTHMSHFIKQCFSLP

Row | SMILES | IC50 [1] | inhibitor activity of DPPIV in vivo (hypoglycemic activity, glucose tolerance) [2] | in vivo activity compared with positive control LAF-237 [2]
1 | CC(C)NC(=O)OC1CC2CC(NCC(=O)N3CCCC3C#N)CC2C1 (stereo not shown) [Example 7, 5-[2-(2-cyano-pyrrolidin-1-yl)-2-oxo-ethylamino]-octahydro-pentalen-2-yl isopropyl-carbamate hydrochloride] | 204 nM | – | –
2 | CC(C)(C)NC(=O)OC1CC2CC(NCC(=O)N3CCCC3C#N)CC2C1 (stereo not shown) [Example 8, 5-[2-(2-cyano-pyrrolidin-1-yl)-2-oxo-ethylamino]-octahydro-pentalen-2-yl tert-butyl-carbamate hydrochloride] | 326 nM | – | –
3 | Cl.N#CC1CCCN1C(=O)CNC1CC2CC(=O)CC2C1 (stereo not shown) [Example 15, 1-[2-(5-oxo-octahydro-pentalen-2-ylamino)-acetyl]-pyrrolidine-2-carbonitrile hydrochloride] | – | good inhibitor activities of DPPIV in vivo | –
4 | CCCCC1(O)CC2CC(NCC(=O)N3CCCC3C#N)CC2C1 (stereo not shown) [Example 10, 1-[2-(5-butyl-5-hydroxy-octahydro-pentalen-2-ylamino)-acetyl]-pyrrolidine-2-carbonitrilehydrochloride] | 18.3 nM | – | –
5 | N#CC1CCCN1C(=O)CNC1CC2CC(OC(=O)Nc3ccccc3)CC2C1 (stereo not shown) [Example 6, 5-[2-(2-cyano-pyrrolidin-1-yl)-2-oxo-ethylamino]-octahydro-pentalen-2-yl phenyl-carbamate hydrochloride] | 121 nM | – | –
6 | Cl.N#CC1CCCN1C(=O)CNC1CC2CC(O)CC2C1 (stereo not shown) [Example 16, 1-(2-(5-hydroxyl-octahydro-pentalen-2-ylamino)-acetyl)pyrrolidine-2-carbonitrile hydrochloride] | – | good inhibitor activities of DPPIV in vivo | slightly better than LAF-237
